# Test results reported in patent US10934303B2, “Aryl ethene derivative and pharmaceutical composition containing same as active ingredient” (priority 2016, dated 2021).
# Like-named read-outs stand apart in the source and are kept apart here.
# What was measured:
# in vivo = assay type: in vivo; conditions: rat; for Cmax: read-out: Cmax
# [1] = 1 μM, 30 minutes, 37° C., NADPH
# Experimental: 2) Microsomal Stability Evaluation
# (§2) Four liver microsomes (Human, Dog, Rat, Mouse 0.5 mg/ml) with a 0.1 M phosphate buffer solution (pH 7.4), and the arylethene derivative of the present invention were added to a concentration of 1 μM, culturing was performed at 37° C. for 5 minutes in advance, a NADPH regeneration system solution was added thereto, and culturing was performed at 37° C. for 30 minutes. Thereafter, in order to complete the reaction, an acetonitrile solution containing an internal standard material (chlorpropamide) was added thereto, centrifugation (14,000 rpm, 4° C.) was performed for 5 minutes, and a supernatant was injected into a LC-MS/MS system to analyze the substrate drug, thereby evaluating metabolism stability to the arylethene derivative of the present invention.
# [2] = 1 μM, 30 minutes, 37° C., NADPH; remark: listed apart in the source
# Experimental: 2) Microsomal Stability Evaluation
# as §2
# [3] = 1 μM, 30 minutes, 37° C., NADPH; remark: listed apart in the source
# [4] = 1 μM, 30 minutes, 37° C., NADPH; remark: listed apart in the source
# [5] = biological target: GST-bound ERR gamma ligand-binding domain (LBD) (Homo sapiens (Human), UniProt P62508); assay: ERRγ binding assay (inverse agonist assay), TR-FRET; conditions: TR-FRET, PGC1a coactivator; read-out: Binding Assay, IC50 ERRγ
# GST-bound ERR gamma ligand-binding domain (LBD), sequence (P62508 233-457): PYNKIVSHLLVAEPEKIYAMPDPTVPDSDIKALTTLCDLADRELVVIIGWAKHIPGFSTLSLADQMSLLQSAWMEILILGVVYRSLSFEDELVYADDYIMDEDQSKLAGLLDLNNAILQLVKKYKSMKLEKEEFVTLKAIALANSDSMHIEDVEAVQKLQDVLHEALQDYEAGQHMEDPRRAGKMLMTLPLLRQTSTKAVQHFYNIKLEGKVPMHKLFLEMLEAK
# Experimental: 1) ERRγ Binding Assay (Inverse Agonist Assay)
# (§3) The arylethene derivative of the present invention was sequentially added to a 384 well plate from a concentration of 10 μM to a final concentration of two-fold dilution. […] After all reagents were added, a reaction was carried out with gentle shaking at 20° C. for 1 hour, and after the reaction, a binding activity was measured by a TR-FRET method.
# ERRγ = assay type: cell-based
# Experimental: AD293 was cultured in a 24-well plate for 24 hours, using a DMEM High glucose culture medium (Hyclone, USA) to which 0.5% FBS was added at a concentration of 9×10^4/well. The culture medium was replaced with a DMEM High glucose culture medium to which 10% FBS was added, treatment was performed with a mixture of a TransIT-LT1 transfection reagent (Mirus, USA) and pCMX-Gal4-ERRγ, pFR-luciferase reporter plasmid, pCMV-β-gal, and culturing was performed for 24 hours. Thereafter, a luciferase activity assay and a β-gal assay were performed, respectively, with a lysate obtained after treatment with the arylethene derivative of the present invention for 24 hours. All results were derived from three or more independent repetitive experiments.
# in vitro = in vitro ADME; set-up: Papp at 5 h: dose or concentration left out as unconfirmed; conditions: PBS pH 7.4, 25° C.; for Papp at 5 h: PAMPA, read-out: Permeability Pampa; for Permeability Pampa: 5 hours
# Experimental: 3) Parallel Artificial Membrane Permeability Assay (PAMPA) Evaluation
# PAMPA is a method which has been developed for testing cell membrane permeability of a material in a test tube, and has been performed using a lipid tri-layer PVDF membrane available from Corning Gentest (NY, US), the used reagents were all purchased from Sigma (MO, US). First, a test material is diluted in PBS (pH 7.4) to a final concentration of 10 mM, 300 mL of the solution is added to the bottom well of a 96-transwell equipped with a PVDF membrane, and 200 mL of PBS is added to the upper well. Then, a plate is reacted at 25° C. for 5 hours, 20 mL of the solution in each well is transferred to a new container, and 80 mL of acetonitrile containing an internal standard material (4 mM chloropropamide) is added thereto. A concentration of the material in the solution is analyzed using LC-MS/MS (ThermoFisher Scientific, MO, US), and the transmittance of the material is calculated according to the equation reported in the reference document.
# GST-bound ERR alpha LBD = GST-bound ERR alpha LBD (Homo sapiens (Human), UniProt P11474); conditions: TR-FRET, PGC1a coactivator; read-out: Binding Assay, IC50 ERRα
# GST-bound ERR alpha LBD, sequence (P11474 193-421): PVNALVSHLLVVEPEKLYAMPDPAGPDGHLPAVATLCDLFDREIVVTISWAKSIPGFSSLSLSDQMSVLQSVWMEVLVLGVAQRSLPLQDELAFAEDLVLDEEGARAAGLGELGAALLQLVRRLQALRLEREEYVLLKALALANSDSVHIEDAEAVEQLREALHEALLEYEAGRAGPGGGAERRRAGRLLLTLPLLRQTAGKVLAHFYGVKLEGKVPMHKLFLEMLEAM
# Experimental: as §3
# [6] = biological target: GST-bound ER alpha ligand-binding domain (LBD) (Homo sapiens (Human), UniProt P03372); assay: biochemical; conditions: TR-FRET, beta-estradiol 4 nM as agonist; read-out: Binding Assay, IC50 ERα
# GST-bound ER alpha ligand-binding domain (LBD), sequence (P03372 whole entry, looked up, the tested form may be a part): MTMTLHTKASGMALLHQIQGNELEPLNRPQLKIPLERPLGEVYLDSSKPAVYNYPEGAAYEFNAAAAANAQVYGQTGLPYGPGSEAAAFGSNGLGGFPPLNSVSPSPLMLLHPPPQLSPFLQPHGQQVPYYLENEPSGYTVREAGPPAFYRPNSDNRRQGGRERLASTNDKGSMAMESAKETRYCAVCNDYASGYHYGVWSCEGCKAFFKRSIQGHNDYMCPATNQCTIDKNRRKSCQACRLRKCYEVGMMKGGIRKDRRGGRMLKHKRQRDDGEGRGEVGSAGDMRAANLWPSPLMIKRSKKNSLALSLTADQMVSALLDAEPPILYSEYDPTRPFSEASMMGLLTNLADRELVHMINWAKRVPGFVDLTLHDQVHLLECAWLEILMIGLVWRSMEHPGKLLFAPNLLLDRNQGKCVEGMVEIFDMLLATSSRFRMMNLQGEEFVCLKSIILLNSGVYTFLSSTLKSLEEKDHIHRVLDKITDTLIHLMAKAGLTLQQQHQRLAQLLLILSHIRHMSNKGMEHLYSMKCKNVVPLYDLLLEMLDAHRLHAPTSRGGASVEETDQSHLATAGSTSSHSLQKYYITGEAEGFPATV
# Experimental: as §3
# CYP1A2 = CYP1A2 (Homo sapiens (Human), UniProt P05177); assay: Cytochrome P450 activity inhibition, CYP1A2; assay type: in vitro ADME; conditions: 10 μM, human liver microsomes, Phenacetin substrate
# CYP1A2, sequence (P05177 whole entry): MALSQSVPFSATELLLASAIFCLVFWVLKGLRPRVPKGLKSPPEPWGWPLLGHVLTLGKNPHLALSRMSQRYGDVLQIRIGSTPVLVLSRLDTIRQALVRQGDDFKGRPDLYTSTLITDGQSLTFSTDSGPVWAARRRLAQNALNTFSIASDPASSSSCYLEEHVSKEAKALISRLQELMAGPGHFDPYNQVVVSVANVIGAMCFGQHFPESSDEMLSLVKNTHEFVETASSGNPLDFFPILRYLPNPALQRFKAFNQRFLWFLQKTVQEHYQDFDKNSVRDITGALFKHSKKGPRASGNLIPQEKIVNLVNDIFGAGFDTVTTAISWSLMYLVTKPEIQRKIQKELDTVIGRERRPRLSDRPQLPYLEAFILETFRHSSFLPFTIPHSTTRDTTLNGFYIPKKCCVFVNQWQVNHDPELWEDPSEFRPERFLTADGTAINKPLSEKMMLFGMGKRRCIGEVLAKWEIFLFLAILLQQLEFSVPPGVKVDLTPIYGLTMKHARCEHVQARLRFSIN
# Source text: (§1) 1) Cytochrome P450 (CYP450) Activity Inhibition Evaluation
# CYP2C9 = CYP2C9 (Homo sapiens (Human), UniProt P11712); assay: Cytochrome P450 activity inhibition, CYP2C9; assay type: in vitro ADME; conditions: 10 μM, human liver microsomes, Diclofenac substrate
# CYP2C9, sequence (P11712 whole entry): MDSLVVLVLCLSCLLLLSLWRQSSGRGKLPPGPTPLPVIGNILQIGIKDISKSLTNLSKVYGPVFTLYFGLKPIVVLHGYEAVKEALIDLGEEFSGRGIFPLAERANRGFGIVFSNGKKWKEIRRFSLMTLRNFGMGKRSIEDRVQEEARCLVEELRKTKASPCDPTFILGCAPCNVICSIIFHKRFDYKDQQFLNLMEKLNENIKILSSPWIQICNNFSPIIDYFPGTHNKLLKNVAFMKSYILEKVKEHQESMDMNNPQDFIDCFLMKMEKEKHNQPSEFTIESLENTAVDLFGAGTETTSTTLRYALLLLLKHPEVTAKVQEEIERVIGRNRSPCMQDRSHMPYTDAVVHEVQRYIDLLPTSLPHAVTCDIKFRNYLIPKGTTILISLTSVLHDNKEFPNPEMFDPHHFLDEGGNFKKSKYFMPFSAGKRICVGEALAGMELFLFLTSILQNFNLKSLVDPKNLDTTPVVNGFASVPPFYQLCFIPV
# Source text: as §1
# CYP2C19 = CYP2C19 (Homo sapiens (Human), UniProt P33261); assay: Cytochrome P450 activity inhibition, CYP2C19; assay type: in vitro ADME; conditions: 10 μM, human liver microsomes, S-mephenytoin substrate
# CYP2C19, sequence (P33261 whole entry): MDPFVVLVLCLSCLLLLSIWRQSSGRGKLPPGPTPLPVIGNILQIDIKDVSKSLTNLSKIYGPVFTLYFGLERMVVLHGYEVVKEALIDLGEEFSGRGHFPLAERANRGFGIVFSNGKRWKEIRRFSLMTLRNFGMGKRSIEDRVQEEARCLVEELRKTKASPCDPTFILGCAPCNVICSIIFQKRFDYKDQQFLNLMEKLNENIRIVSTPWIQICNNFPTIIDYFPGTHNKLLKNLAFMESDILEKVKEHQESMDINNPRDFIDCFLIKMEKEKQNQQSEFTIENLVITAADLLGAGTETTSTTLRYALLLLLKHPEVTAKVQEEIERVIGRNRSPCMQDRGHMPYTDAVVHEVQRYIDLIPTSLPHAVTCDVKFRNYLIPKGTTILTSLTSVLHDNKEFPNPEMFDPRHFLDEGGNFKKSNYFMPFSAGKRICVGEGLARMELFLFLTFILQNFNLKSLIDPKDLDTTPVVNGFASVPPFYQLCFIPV
# Source text: as §1
# CYP2D6 = CYP2D6 (Homo sapiens (Human), UniProt P10635); assay: Cytochrome P450 activity inhibition, CYP2D6; assay type: in vitro ADME; conditions: 10 μM, human liver microsomes, Dextromethorphan substrate
# CYP2D6, sequence (P10635 whole entry): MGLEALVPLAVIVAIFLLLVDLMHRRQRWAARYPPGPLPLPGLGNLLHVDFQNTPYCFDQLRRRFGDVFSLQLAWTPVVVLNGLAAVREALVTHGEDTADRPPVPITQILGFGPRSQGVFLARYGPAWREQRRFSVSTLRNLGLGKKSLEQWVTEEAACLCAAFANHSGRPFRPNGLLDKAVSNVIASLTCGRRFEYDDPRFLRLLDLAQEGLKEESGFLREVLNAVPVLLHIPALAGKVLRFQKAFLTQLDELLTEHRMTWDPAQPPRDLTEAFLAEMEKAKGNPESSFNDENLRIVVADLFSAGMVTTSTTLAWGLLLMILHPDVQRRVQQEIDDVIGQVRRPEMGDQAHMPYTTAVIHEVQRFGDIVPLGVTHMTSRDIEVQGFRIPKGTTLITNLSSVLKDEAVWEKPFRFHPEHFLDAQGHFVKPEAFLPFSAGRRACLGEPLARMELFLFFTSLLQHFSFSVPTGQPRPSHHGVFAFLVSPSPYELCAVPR
# Source text: as §1
# CYP3A4 = CYP3A4 (Homo sapiens (Human), UniProt P08684); assay: Cytochrome P450 activity inhibition, CYP3A4; assay type: in vitro ADME; conditions: 10 μM, human liver microsomes, Midazolam substrate
# CYP3A4, sequence (P08684 whole entry): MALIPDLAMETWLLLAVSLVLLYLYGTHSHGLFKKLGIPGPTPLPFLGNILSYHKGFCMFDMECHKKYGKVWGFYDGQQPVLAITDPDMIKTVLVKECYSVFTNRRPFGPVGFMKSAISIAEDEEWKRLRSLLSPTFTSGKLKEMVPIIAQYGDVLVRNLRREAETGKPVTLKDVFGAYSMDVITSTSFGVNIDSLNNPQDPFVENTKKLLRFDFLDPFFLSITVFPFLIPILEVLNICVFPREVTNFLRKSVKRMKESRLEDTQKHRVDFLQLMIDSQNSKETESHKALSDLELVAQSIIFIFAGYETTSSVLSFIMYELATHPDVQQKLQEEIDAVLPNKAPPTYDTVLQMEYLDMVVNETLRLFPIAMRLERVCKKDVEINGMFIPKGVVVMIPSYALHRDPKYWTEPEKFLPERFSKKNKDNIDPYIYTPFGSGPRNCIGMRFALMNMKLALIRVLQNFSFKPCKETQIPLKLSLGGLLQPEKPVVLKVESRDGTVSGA
# Source text: as §1
# [7] = activity relative to reference compound GSK5182, 10 μM
Compound,MS(Microsomal Stability) (%) human [1],MS(Microsomal Stability) (%) dog [2],MS(Microsomal Stability) (%) rat [3],MS(Microsomal Stability) (%) mouse [4],CYP inhibition (% of control) 1A2 (CYP1A2),CYP inhibition (% of control) 2C9 (CYP2C9),CYP inhibition (% of control) 2C19 (CYP2C19),CYP inhibition (% of control) 2D6 (CYP2D6),CYP inhibition (% of control) 3A4 (CYP3A4),Permeability Pampa (in vitro),also measured
CC(C)N1CCC(c2ccc(/C(=C(/CCCO)c3ccccc3)c3ccc(O)cc3)cc2)C1 (racemic) [Compound 22s],34.9%,35.4%,75.6%,21.7%,–,–,–,–,–,–,"AUCall (in vivo; IV, 1 mg/kg): 0.44 μMh; Vss (in vivo; IV, 1 mg/kg): 13.2 L/kg; t1/2 (in vivo; IV, 1 mg/kg): 2.2 h; AUCINF (in vivo; PO, 10 mg/kg): 0.11 μMh; AUCall (in vivo; PO, 10 mg/kg): 0.09 μMh; BA (in vivo; PO, 10 mg/kg): 18.5%; Tmax (in vivo; PO, 10 mg/kg): 1.3 h; Cmax (in vivo; PO, 10 mg/kg): 20 nM"
CC(C)N1CCC(c2ccc(/C(=C(/CCCO)c3ccccc3)c3cccc(O)c3)cc2)C1 (racemic) [Compound 22u],40.0%,10.0%,44.3%,17.2%,–,–,–,–,–,–,–
CN1CCC[C@H]1CCOc1ccc(/C(=C(/CCCO)c2ccccc2)c2ccc(O)cc2)cc1 [Compound 6j],–,–,–,–,–,–,–,–,–,–,"IC50 [5]: 34 nM; Functional Assay at 10 μM (% of control), Cpds (ERRγ; 10 μM, 24 hours, AD293): 2.44 % of control; Functional Assay, Cpds/Ref 5182 (ERRγ; [7]): 0.77"
CN1CCC[C@@H]1CCOc1ccc(/C(=C(/CCCO)c2ccccc2)c2ccc(O)cc2)cc1 [Compound 6k],–,–,–,–,–,–,–,–,–,–,"IC50 [5]: 26 nM; Functional Assay at 10 μM (% of control), Cpds (ERRγ; 10 μM, 24 hours, AD293): 2.5 % of control; Functional Assay, Cpds/Ref 5182 (ERRγ; [7]): 0.79; Papp at 5 h (in vitro): 0.12 ×10⁻⁶ cm/s"
"Cl.Cl.OCCC/C(=C(\c1ccc(O)cc1)c1ccc(OCCN2CCNCC2)cc1)c1ccccc1 [Compound 7a, (Z)-4-(5-hydroxy-2-phenyl-1-(4-(2-(piperazin-1-yl)ethoxy)phenyl)pent-1-en-1-yl)phenol 2hydrochloride salt]",49.0%,64.7%,59.5%,32.1%,–,–,–,–,–,–,"Functional Assay at 10 μM (% of control), Cpds (ERRγ): 2.71 % of control; Functional Assay, Cpds/Ref 5182 (ERRγ): 0.86"
CN1CCC[C@H]1COc1ccc(/C(=C(/CCCO)c2ccccc2)c2ccc(Br)cc2)cc1 [Compound 13b],61.2%,–,66.2%,–,–,–,–,–,–,–,"IC50 [5]: 64 nM; Functional Assay at 10 μM (% of control), Cpds (ERRγ): 1.5 % of control; Functional Assay, Cpds/Ref 5182 (ERRγ): 0.48; Papp at 5 h (in vitro): 0.93 ×10⁻⁶ cm/s"
CC(C)N1CCN(c2ccc(/C(=C(/CCCO)c3ccccc3)c3ccc(Br)cc3)cc2)CC1 [Compound 18e],–,–,–,–,>100 % of control,91.3 % of control,84.6 % of control,>100 % of control,84 % of control,1.11 10^−6 cm/s,"IC50 (GST-bound ERR alpha LBD): > 10000 nM; IC50 [6]: > 10000 nM; Functional Assay at 10 μM (% of control), Cpds (ERRγ; 10 μM, 24 hours, AD293): 2.6 % of control; Functional Assay, Cpds/Ref 5182 (ERRγ; [7]): 0.89; AUCINF (in vivo; IV, 1 mg/kg): 0.06 μMh; AUCall (in vivo; IV, 1 mg/kg): 0.06 μMh; Vss (in vivo; IV, 1 mg/kg): 39.1 L/kg; t1/2 (in vivo; IV, 1 mg/kg): 0.8 h; AUCINF (in vivo; PO, 10 mg/kg): 0.09 μMh; AUCall (in vivo; PO, 10 mg/kg): 0.07 μMh; BA (in vivo; PO, 10 mg/kg): 11.5%; Tmax (in vivo; PO, 10 mg/kg): 2.8 h; Cmax (in vivo; PO, 10 mg/kg): 10 nM"
CC(C)N1CCN(c2ccc(/C(=C(/CCCO)c3ccccc3)c3cccc(O)c3)cc2)CC1 [Compound 18k],65.4%,61.2%,54.9%,26.9%,–,–,–,–,–,1.29 10^−6 cm/s,"Functional Assay at 10 μM (% of control), Cpds (ERRγ; 10 μM, 24 hours, AD293): 1.08 % of control; Functional Assay, Cpds/Ref 5182 (ERRγ; [7]): 1.14"
Cc1ccc(/C(=C(\CCCO)c2ccccc2)c2ccc(C3CCNCC3)cc2)cc1 [Compound 20k],93.6%,84.9%,89.0%,81.3%,79.3 % of control,87.6 % of control,78.9 % of control,96.2 % of control,83.6 % of control,–,–
CCN1CCC(c2ccc(C(=C(CCCO)c3ccccc3)c3cccc(O)c3)cc2)CC1 [Compound 22ae],48.4%,33.7%,32.2%,21.5%,59.4 % of control,>100 % of control,>100 % of control,68.4 % of control,81.5 % of control,–,–
Cc1ccc(/C(=C(\CCCO)c2ccccc2)c2ccc(C3CCN(C)CC3)cc2)cc1 [Compound 22f],97.0%,78.1%,80.0%,66.3%,–,–,–,–,–,3.96 10^−6 cm/s,–
CC(C)N1CCC(c2ccc(/C(=C(/CCCO)c3ccccc3)c3cccc(O)c3)cc2)CC1 [Compound 22h],46.9%,22.4%,43.8%,16.2%,>100 % of control,97.9 % of control,>100 % of control,69.1 % of control,72.2 % of control,–,–
OCCC/C(=C(\c1ccc(O)cc1)c1ccc(C2CCN(C3CC3)CC2)cc1)c1ccccc1 [Compound 22i],36.0%,91.5%,92.6%,83.6%,–,–,–,–,–,0.35 10^−6 cm/s,"AUCINF (in vivo; IV, 1 mg/kg): 0.54 μMh; AUCall (in vivo; IV, 1 mg/kg): 0.49 μMh; Vss (in vivo; IV, 1 mg/kg): 11.7 L/kg; t1/2 (in vivo; IV, 1 mg/kg): 3.0 h; AUCINF (in vivo; PO, 10 mg/kg): 4.52 μMh; AUCall (in vivo; PO, 10 mg/kg): 2.24 μMh; BA (in vivo; PO, 10 mg/kg): 45.3%; Tmax (in vivo; PO, 10 mg/kg): 2.2 h; Cmax (in vivo; PO, 10 mg/kg): 380 nM"
CC(C)N1CCC(c2ccc(/C(=C(/CCCO)c3ccccc3)c3ccc(O)cc3)cc2)CC1 [Compound 22k],59.7%,59.6%,69.0%,23.4%,>100 % of control,97 % of control,>100 % of control,73.7 % of control,74.7 % of control,–,"IC50 (GST-bound ERR alpha LBD): > 10000 nM; IC50 [6]: 1380 nM; Functional Assay at 10 μM (% of control), Cpds (ERRγ; 10 μM, 24 hours, AD293): 0.77 % of control; Functional Assay, Cpds/Ref 5182 (ERRγ; [7]): 0.83"
OCCC/C(=C(/c1ccc(C2=CCN(C3CC3)CC2)cc1)c1cccc(O)c1)c1ccccc1 [Compound 22l],71.8%,67.9%,53.4%,25.8%,96.2 % of control,88.3 % of control,97 % of control,99 % of control,80.7 % of control,–,–
CC(C)N1CCN(c2ccc(/C(=C(/CCCO)c3ccccc3)c3ccc(N)cc3)cc2)CC1 [Compound 26b],49.1%,40.6%,31.4%,14.3%,99.2 % of control,92.5 % of control,98.7 % of control,81.9 % of control,60.9 % of control,–,–
CC(=O)Nc1ccc(/C(=C(\CCCO)c2ccccc2)c2ccc(C3CCN(C4CC4)CC3)cc2)cc1 [Compound 27c],83.5%,81.2%,79.4%,42.1%,–,–,–,–,–,0.68 10^−6 cm/s,–
CC(=O)Nc1ccc(/C(=C(\CCCOC(C)=O)c2ccccc2)c2ccc(C3CCN(C4CC4)CC3)cc2)cc1 [Compound 27d],63.7%,43.8%,67.6%,17.6%,–,–,–,–,–,0.34 10^−6 cm/s,–
